Assay results from patent EP4603105A1, “PHARMACEUTICAL COMPOSITION CONTAINING CYCLIC COMPOUND HAVING SELECTIVE KRAS INHIBITORY EFFECT AGAINST HRAS AND NRAS” (CHUGAI SEIYAKU KABUSHIKI KAISHA, priority 2022, dated 2024).
Where a SMILES comes first, the peptide text is derived from it. Bridges are numbered along the chain shown (N, C = ends). [ ]: non-standard residue; d: D form. The star is where a group is joined. hPhe(3,5-F2-4-CF3) = N[C@@H](CCc1cc(F)c(C(F)(F)F)c(F)c1)C(=O)O; hPhe(3-Cl-4-CF3) = N[C@@H](CCc1ccc(C(F)(F)F)c(Cl)c1)C(=O)O; NPrPhe(4-CF3) = CCCN[C@@H](Cc1ccc(C(F)(F)F)cc1)C(=O)O; NMeGly(cPent) = CN[C@H](C(=O)O)C1CCCC1; Nva(3-Et) = CCC(CC)[C@H](N)C(=O)O; NMeD = CN[C@@H](CC(=O)O)C(=O)O; NMeL = CN[C@@H](CC(C)C)C(=O)O; Morpholide = C1CN(*)CCO1; Ac5c = NC1(C(=O)O)CCCC1; Aze = O=C(O)[C@@H]1CCN1; NcPrGly = O=C(O)CNC1CC1; Sar = CNCC(=O)O

Columns and labels:
[1] = biological target: GDP-bound NRAS wild-type protein (Homo sapiens, UniProt P01111); test: Binding to NRAS by surface plasmon resonance (SPR), KD and KD ratio to KRAS
Summary of the method: (§1)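 Affinity is measured by surface plasmon resonance at 30°C against captured, GDP-loaded RAS carrying a biotinylated Avi tag. Compounds are titrated by single-cycle kinetics, and KD comes from a 1:1 fit.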

HRAS wild-type protein = HRAS wild-type protein (Homo sapiens, UniProt P01112); test: Binding to HRAS by surface plasmon resonance (SPR), KD and KD ratio to KRAS
Summary of the method: as §1

[2] = system: human lung cancer strain NCI-H441; assay type: cell-based
Summary of the method: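 Readout: […] after the ATP-based reagent. Compound: serial dilutions in dimethyl sulfoxide.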

[3] = ratio of the KD value with respect to GDP-bound NRAS wild-type protein to the KD value with respect to KRAS
[4] = ratio of the KD value with respect to HRAS wild-type protein to the KD value with respect to KRAS
[5] = ratio of KD for GDP-bound NRAS wild-type protein to KD for KRAS
[6] = ratio of KD for HRAS wild-type protein to KD for KRAS

HRAS wild-type protein, sequence (P01112 whole entry): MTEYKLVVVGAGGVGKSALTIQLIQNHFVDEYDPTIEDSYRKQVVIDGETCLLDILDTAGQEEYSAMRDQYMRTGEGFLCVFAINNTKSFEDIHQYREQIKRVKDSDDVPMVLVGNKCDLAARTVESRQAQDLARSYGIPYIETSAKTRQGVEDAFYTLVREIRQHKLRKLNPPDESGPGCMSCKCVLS
GDP-bound NRAS wild-type protein, sequence (P01111 whole entry): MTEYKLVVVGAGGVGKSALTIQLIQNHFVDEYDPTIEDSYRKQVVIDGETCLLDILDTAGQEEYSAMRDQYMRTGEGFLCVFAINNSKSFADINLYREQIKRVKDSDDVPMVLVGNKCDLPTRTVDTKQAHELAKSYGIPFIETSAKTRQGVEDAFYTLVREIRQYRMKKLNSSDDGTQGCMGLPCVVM

IC50 [2] [nM] | SMILES | NRAS /KRAS [1, 3] | HRAS /KRAS (HRAS wild-type protein; [4]) | NRAS /KRAS [1, 5] | HRAS /KRAS (HRAS wild-type protein; [6]) | NRAS /KRAS ([1]; ratio of KD value for GDP-bound NRAS wild-type protein to KD value for KRAS (SPR)) | HRAS /KRAS (HRAS wild-type protein; ratio of KD value for HRAS wild-type protein to KD value for KRAS (SPR))
45.9 | CCCN1C(=O)CN(C)C(=O)CN(C)C(=O)[C@H](C(CC)CC)NC(=O)[C@H](CC(C)C)N(C)C(=O)C[C@@H](C(=O)N(C)C)N(C)C(=O)[C@H](C2CCCC2)N(C)C(=O)C2(CCCC2)NC(=O)[C@@H]2CCCN2C(=O)[C@H](CCc2cc(F)c(C(F)(F)F)c(F)c2)NC(=O)CN(C)C(=O)[C@@H]1Cc1ccc(C(F)(F)F)cc1 [PP0747] ([NMeL][Nva(3-Et)][Sar][Sar][NPrPhe(4-CF3)][Sar][hPhe(3,5-F2-4-CF3)]P[Ac5c][NMeGly(cPent)][NMeD]-NMe2; lactam N-11) | B (a compound having 3 or more and less than 10 is denoted as B) | C (A compound having a KD ratio of 0.1 or more and less than 3 is denoted as C) | – | – | – | –
333 | CCCN1C(=O)CN(C)C(=O)[C@@H]2CCN2C(=O)[C@H]([C@@H](C)CC)NC(=O)[C@H](CC(C)C)N(C)C(=O)C[C@@H](C(=O)N2CCOCC2)NC(=O)[C@H](C2CCCC2)N(C)C(=O)C2(CCCC2)NC(=O)[C@@H]2CCCN2C(=O)[C@H](CCc2ccc(C(F)(F)F)c(Cl)c2)NC(=O)CN(C)C(=O)[C@@H]1Cc1ccc(C(F)(F)F)cc1 [PP0337] ([NMeL]I[Aze][Sar][NPrPhe(4-CF3)][Sar][hPhe(3-Cl-4-CF3)]P[Ac5c][NMeGly(cPent)]D-Morpholide; lactam N-11) | – | – | B (a compound having 3 or more and less than 10 is denoted as B) | B (a compound having 3 or more and less than 10 is denoted as B) | – | –
36.6 | CCO[C@@H]1C[C@H]2C(=O)NC3(CC(F)(F)C3)C(=O)N(C)[C@@H](C3CCCC3)C(=O)N(C)C(C(C)C)CC(=O)N(C)[C@@H](CC3CC3)C(=O)N[C@@H]([C@@H](C)CC)C(=O)N(C)CC(=O)N(C)[C@H]3C/C=C\CCN(C3=O)[C@@H](Cc3ccc(C(F)(F)F)cc3)C(=O)N(C)CC(=O)N[C@@H](CCc3cc(F)c(C(F)(F)F)c(F)c3)C(=O)N2C1 (stereo partly drawn) [PP1598] | – | – | – | – | A (a compound having 10 or more and less than 20 is denoted as A) | A (a compound having 10 or more and less than 20 is denoted as A)

Second part, the compound before the results:

SMILES | IC50 [2] [nM] | NRAS /KRAS [1, 3] | HRAS /KRAS (HRAS wild-type protein; [4]) | NRAS /KRAS [1, 5] | HRAS /KRAS (HRAS wild-type protein; [6]) | NRAS /KRAS ([1]; ratio of KD value for GDP-bound NRAS wild-type protein to KD value for KRAS (SPR)) | HRAS /KRAS (HRAS wild-type protein; ratio of KD value for HRAS wild-type protein to KD value for KRAS (SPR))
CCO[C@@H]1C[C@H]2C(=O)NC3(CC(C)(C)C3)C(=O)N(C)[C@@H](C3CCCC3)C(=O)N(C)[C@H](C(=O)N(C)CC)CC(=O)N(C)[C@@H](CC(C)C)C(=O)N[C@@H]([C@@H](C)OCC)C(=O)N(C)CC(=O)N(C)[C@H]3C/C=C\CCN(C3=O)[C@@H](Cc3ccc(C(F)(F)F)cc3)C(=O)N(C)CC(=O)N[C@@H](CCc3cc(F)c(C(F)(F)F)c(F)c3)C(=O)N2C1 [PP1919] | 6.3 | A (a compound having 10 or more and less than 20 is denoted as A) | A (a compound having 10 or more and less than 20 is denoted as A) | – | – | – | –
CCO[C@@H]1C[C@H]2C(=O)NC3(CC(C)(C)C3)C(=O)N(C)[C@@H](C(CC)CC)C(=O)N(C)[C@H](C(=O)N3CCCCC3)CC(=O)N(C)[C@H]3CCC/C=C/c4ccc(cc4)C[C@@H](C(=O)N(C)CC(=O)N[C@@H](CCc4cc(F)c(C(F)(F)F)c(F)c4)C(=O)N2C1)N1CC/C=C\C[C@@H](C1=O)N(C)C(=O)CN(C)C(=O)[C@H]([C@@H](C)CC)NC3=O [PP2952] | 45 | – | – | AA (a compound having 20 or more is denoted as AA) | A (a compound having 10 or more and less than 20 is denoted as A) | – | –
CCCN1C(=O)[C@@H]2CCN2C(=O)CN(C2CC2)C(=O)[C@H]([C@@H](C)CC)NC(=O)[C@H](CC(C)C)N(C)C(=O)C[C@@H](C(=O)N2CCOCC2)N(C)C(=O)[C@H](C2CCCC2)N(C)C(=O)C2(CCCC2)NC(=O)[C@@H]2CCCN2C(=O)[C@H](CCc2ccc(C(F)(F)F)c(Cl)c2)NC(=O)CN(C)C(=O)[C@@H]1Cc1ccc(C(F)(F)F)cc1 [PP0273] ([NMeL]I[NcPrGly][Aze][NPrPhe(4-CF3)][Sar][hPhe(3-Cl-4-CF3)]P[Ac5c][NMeGly(cPent)][NMeD]-Morpholide; lactam N-11) | 12.2 | – | – | C (A compound having a KD ratio of 0.1 or more and less than 3 is denoted as C) | B (a compound having 3 or more and less than 10 is denoted as B) | – | –
